This note sets out measurements from patent US20250170248A1, “SMARCA DEGRADERS AND USES THEREOF” (Kymera Therapeutics, Inc., priority 2021, published 2025).

Holding throughout (type): cell-based
The target in assay [1] is T1, SMARCA4 (Homo sapiens, UniProt P51532).
T1 construct: SMARCA2/SMARCA4 protein degradation selectivity in MV4-11 cells; endogenous in cells; host or cells: MV4-11
Kind of assay: SMARCA4 Western blot degradation in MV4-11 cells. Particulars: for Dmax: MV4-11, MV4-11 cells, read-out: SMARCA4 MSD MV411 degradation 24 h: average Dmax %; for Dmax / DC50: 24 h; for DC50 / SMARCA4 MSD MV411 degradation 24 h: average Dmax %: MV4-11 cells; for DC50: read-out: SMARCA4 MSD MV411 degradation 24 h: Mean external-Abs DC50. The procedure, abridged:
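MV4-11 cells (4×10^6/well) treated with compound for 24 h, lysed in RIPA with protease/phosphatase inhibitors, and SMARCA2, SMARCA4 and beta-actin detected by Western blot with LI-COR readout. Values reported as letter-coded DC50, 24 h Dmax % and SMARCA2/4 selectivity fold.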

In assay [2] the target is T2, SMARCA2 (Homo sapiens, UniProt P51531). Nature of the assay: SMARCA2 Western blot degradation in MV4-11 cells. Particulars: for Dmax: MV4-11, MV4-11 cells, read-out: SMARCA2 MSD MV411 degradation 24 h: average Dmax %; for Dmax / DC50 / SMARCA2 MSD MV411 degradation 24 h: average Dmax %: 24 h; for DC50 / Selectivity in MV411 / SMARCA2 MSD MV411 degradation 24 h: average Dmax %: MV4-11 cells; for DC50: read-out: SMARCA2 MSD MV411 degradation 24 h: Mean external-Abs DC50; for Selectivity in MV411: SMARCA2/4 selectivity. Set-up: SMARCA2/SMARCA4 protein degradation selectivity in MV4-11 cells; endogenous in cells; host or cells: MV4-11.

Assay [3] addresses T2, SMARCA2. Kind of assay: MSD SMARCA2 degradation in A549 cell line. Particulars: for Dmax: A549, A549 cells; for Dmax / DC50: 24 h; for DC50 / SMARCA2 MSD A549 degradation 24 h: Average Dmax %: A549 cells; for DC50: read-out: SMARCA2 MSD A549 degradation 24 h: Average external-Abs DC50. The method in brief: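 A549 cells treated 24 h with compound, 3-fold series from 1000 nM. Lysates captured on MSD plates and SMARCA2 quantified with anti-SMARCA2 and SULFO-TAG secondary antibodies (electrochemiluminescence). DC50 and Dmax (% degradation at 24 h) reported as letter bins.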

T1 sequence (P51532 whole entry): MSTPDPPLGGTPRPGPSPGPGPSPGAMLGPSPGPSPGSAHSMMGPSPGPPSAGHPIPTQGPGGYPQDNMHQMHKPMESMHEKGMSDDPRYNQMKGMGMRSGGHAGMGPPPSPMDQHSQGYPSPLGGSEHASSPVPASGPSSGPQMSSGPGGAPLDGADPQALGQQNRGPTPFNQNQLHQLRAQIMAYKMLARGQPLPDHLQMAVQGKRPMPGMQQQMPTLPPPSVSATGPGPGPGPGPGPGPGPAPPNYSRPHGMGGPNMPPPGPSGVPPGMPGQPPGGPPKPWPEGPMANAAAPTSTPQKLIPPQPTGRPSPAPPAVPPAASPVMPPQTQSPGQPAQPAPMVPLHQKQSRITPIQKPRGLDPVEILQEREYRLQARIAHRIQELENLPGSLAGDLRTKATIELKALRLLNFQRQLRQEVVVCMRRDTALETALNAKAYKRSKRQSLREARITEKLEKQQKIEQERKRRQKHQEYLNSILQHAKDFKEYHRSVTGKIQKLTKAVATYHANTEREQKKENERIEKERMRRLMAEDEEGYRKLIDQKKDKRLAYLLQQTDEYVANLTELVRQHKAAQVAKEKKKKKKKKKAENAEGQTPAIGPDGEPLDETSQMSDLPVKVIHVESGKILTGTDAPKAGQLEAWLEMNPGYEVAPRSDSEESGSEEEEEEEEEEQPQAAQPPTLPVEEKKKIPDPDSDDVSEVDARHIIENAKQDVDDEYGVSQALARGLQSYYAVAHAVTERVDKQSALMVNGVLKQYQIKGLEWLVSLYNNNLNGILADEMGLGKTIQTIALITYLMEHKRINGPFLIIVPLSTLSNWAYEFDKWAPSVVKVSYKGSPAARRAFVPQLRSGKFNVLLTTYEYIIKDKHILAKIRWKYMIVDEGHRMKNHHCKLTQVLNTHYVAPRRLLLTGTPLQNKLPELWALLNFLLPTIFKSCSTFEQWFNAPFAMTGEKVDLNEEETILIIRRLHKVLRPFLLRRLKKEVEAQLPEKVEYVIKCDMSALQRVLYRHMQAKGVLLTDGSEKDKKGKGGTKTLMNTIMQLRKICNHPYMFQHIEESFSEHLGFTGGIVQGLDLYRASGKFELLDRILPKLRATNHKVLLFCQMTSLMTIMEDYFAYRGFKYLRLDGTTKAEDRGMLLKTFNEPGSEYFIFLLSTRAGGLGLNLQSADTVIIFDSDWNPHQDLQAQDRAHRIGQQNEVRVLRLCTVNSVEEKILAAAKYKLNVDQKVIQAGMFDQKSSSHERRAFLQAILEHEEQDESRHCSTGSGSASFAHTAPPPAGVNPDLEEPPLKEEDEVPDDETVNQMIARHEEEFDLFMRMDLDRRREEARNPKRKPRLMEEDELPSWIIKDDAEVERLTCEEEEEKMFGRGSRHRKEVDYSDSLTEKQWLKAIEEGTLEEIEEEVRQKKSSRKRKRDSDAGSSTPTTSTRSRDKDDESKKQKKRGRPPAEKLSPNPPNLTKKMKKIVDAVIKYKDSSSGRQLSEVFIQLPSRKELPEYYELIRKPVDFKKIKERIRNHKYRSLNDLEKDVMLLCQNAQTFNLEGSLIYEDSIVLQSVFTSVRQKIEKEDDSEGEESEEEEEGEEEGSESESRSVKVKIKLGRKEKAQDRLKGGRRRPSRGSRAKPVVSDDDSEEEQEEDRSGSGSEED
T2 sequence (P51531 whole entry): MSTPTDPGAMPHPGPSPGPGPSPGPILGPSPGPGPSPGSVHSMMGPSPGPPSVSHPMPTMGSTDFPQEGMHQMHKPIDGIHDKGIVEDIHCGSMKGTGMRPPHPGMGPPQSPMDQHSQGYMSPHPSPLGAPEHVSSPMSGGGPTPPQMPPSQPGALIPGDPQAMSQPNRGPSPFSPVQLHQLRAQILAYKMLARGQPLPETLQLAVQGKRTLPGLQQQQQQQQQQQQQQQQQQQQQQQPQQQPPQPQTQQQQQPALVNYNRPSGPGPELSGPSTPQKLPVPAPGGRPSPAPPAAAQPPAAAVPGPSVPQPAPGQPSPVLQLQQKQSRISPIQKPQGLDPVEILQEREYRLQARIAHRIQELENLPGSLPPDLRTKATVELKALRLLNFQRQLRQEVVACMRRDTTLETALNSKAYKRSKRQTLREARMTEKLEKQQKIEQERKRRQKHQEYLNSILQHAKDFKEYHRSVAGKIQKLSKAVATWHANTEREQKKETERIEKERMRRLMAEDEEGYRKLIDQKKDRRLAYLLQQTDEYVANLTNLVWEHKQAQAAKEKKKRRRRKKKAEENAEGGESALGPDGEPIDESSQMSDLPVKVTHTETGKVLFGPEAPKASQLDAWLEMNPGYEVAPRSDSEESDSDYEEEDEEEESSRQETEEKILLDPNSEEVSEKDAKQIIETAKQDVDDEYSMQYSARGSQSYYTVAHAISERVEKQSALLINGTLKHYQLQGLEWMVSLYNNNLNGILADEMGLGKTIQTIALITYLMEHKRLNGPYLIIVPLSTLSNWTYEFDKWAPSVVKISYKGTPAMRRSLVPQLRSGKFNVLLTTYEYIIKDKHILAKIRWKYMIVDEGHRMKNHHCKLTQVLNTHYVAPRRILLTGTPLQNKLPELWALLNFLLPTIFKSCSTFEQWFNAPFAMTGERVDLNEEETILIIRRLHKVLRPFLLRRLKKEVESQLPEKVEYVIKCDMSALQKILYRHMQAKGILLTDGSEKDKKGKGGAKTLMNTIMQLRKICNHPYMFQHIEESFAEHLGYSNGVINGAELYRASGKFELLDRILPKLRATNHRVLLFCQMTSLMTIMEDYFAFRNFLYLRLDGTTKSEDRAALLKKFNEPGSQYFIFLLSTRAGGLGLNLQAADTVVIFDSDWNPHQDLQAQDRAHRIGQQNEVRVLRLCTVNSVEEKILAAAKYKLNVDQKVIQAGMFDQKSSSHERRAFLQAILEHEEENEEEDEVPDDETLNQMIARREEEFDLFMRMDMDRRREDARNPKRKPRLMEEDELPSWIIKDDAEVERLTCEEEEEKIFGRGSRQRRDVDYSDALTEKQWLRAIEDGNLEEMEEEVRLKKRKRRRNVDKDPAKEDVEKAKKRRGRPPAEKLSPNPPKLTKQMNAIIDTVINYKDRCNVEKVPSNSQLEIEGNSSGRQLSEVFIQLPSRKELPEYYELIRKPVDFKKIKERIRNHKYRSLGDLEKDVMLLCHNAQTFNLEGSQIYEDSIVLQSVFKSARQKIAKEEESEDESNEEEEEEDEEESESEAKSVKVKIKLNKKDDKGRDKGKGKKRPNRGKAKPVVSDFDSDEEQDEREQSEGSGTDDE

With `C#Cc1ccc([C@H](C)NC(=O)[C@@H]2C[C@@H](O)CN2C(=O)[C@@H](NC(=O)N2CC3(CC(N4CCC(c5cnc(N6CCc7[nH]c8nnc(-c9ccccc9O)cc8c7[C@H]6C)nc5)CC4)C3)C2)C(C)(C)CCO)cc1` [I-259], the Dmax in assay [1] was < 50%; in assay [2], 70 to 90%; in assay [3], > 90%. Also, the DC50 in assay [1] was > 100 nM; in assay [2], 1 to 10 nM; in assay [3] it was < 10 nM. The “Selectivity in MV411” value in assay [2] is listed as “A (A (>500 fold))”.
Consider `C#Cc1ccc(CNC(=O)[C@@H]2C[C@@H](O)CN2C(=O)[C@@H](NC(=O)N2CC3(CC(N4C[C@H]5CN(c6cnc(N7CCc8[nH]c9nnc(-c%10ccccc%10O)cc9c8[C@H]7C)nc6)C[C@H]5C4)C3)C2)C(C)(C)C)cc1` [I-171], for which, in assay [1], the Dmax is < 50% and the DC50 was > 100 nM. In assay [2], the Dmax is 50 to 70%, the DC50 fell in the range of 10 to 100 nM and the “Selectivity in MV411” value is recorded as “C (C (10-100 fold))”. Further, in assay [3], the Dmax was > 90% and the DC50 is > 100 nM.
With `C#Cc1ccc(CNC(=O)[C@@H]2C[C@@H](O)CN2C(=O)[C@@H](NC(=O)[C@H]2CC3(CC[C@H](N4CCN(c5cnc(N6CCc7[nH]c8nnc(-c9ccccc9O)cc8c7[C@H]6C)nc5)CC4)CC3)C2)C(C)(C)C)cc1` (single isomer, unassigned) [I-285], in assay [1], the Dmax was in the range of 70 to 90% and the half-maximal degradation concentration (DC50) was > 100 nM. Besides, in assay [2], the maximal degradation (Dmax) lay in the range of 70 to 90%, the DC50 lay in the range of 10 to 100 nM and the “Selectivity in MV411” value is on record as “C (C (10-100 fold))”. Also, in assay [3], the Dmax is > 90% and the DC50 lay in the range of 10 to 50 nM.
Take `Cc1ncsc1-c1ccc(CNC(=O)[C@@H]2C[C@@H](O)CN2C(=O)C(c2cc(N3CC4(CC(N5CCC(c6cnc(N7CCc8[nH]c9nnc(-c%10ccccc%10O)cc9c8[C@@H]7C)nc6)CC5)C4)C3)no2)C(C)C)cc1` (stereo partly drawn) [I-11]: in assay [1], the Dmax is > 90% and the DC50 lay in the range of 10 to 100 nM. For the same molecule, in assay [2], the maximal degradation (Dmax) is > 90%, the half-maximal degradation concentration (DC50) was in the range of 1 to 10 nM and the “Selectivity in MV411” value is on record as “D (D (<10 fold))”. In assay [3], the greatest degradation seen (Dmax) was > 90% and the DC50 was 10 to 50 nM.
`CC(C)(C)[C@H](NC(=O)[C@H]1CCC2(CC1)C[C@H](N1CCC(c3cnc(N4CCN5c6cc(-c7ccccc7O)nnc6NC[C@H]5C4)nc3)CC1)C2)C(=O)N1C[C@H](O)C[C@H]1C(=O)NCC#Cc1ccc(Cl)cc1` (single isomer, unassigned) [I-114]: in assay [1], the “SMARCA4 MSD MV411 degradation 24 h: average Dmax %” value is “D (D (<50% degradation))” and the DC50 was > 100 nM. In assay [2], the “SMARCA2 MSD MV411 degradation 24 h: average Dmax %” value is recorded as “D (D (<50% degradation))”, the DC50 was > 100 nM and the “Selectivity in MV411” value is on record as “C (C (10-100 fold))”. Also, in assay [3], the “SMARCA2 MSD A549 degradation 24 h: Average Dmax %” value is reported as “D (D (<50% degradation))” and the DC50 is > 100 nM.
In the case of `C#Cc1ccc(CNC(=O)[C@@H]2C[C@@H](O)CN2C(=O)[C@@H](NC(=O)[C@H]2CCC3(CC2)C[C@H](N2CCC(N4CCC(N5CCN6c7cc(-c8ccccc8O)nnc7NC[C@H]6C5)CC4)CC2)C3)C(C)(C)C)cc1` (single isomer, unassigned) [I-174], the Dmax is < 50% in assay [1], 70 to 90% in assay [2] and > 90% in assay [3]. In addition, the half-maximal degradation concentration (DC50) is > 100 nM in assay [1], 10 to 100 nM in assay [2] and > 100 nM in assay [3]. The “Selectivity in MV411” value in assay [2] is “B (B (>100-500 fold))”.
In the case of `Cc1ncsc1-c1ccc(CNC(=O)[C@@H]2C[C@@H](O)CN2C(=O)[C@@H](NC(=O)[C@H]2CCC3(CC2)C[C@H](N2CCC(c4ccc(N5CCN6c7cc(-c8ccccc8O)nnc7NC[C@H]6C5)nc4)CC2)C3)C(C)(C)C)cc1` (stereo partly drawn) [I-94], in assay [1], the “SMARCA4 MSD MV411 degradation 24 h: average Dmax %” value is given as “C (C (50-70% degradation))” and the 50% degradation concentration (DC50) lay in the range of 10 to 100 nM. Also, in assay [2], the “SMARCA2 MSD MV411 degradation 24 h: average Dmax %” value is recorded as “B (B (>70-90% degradation))”, the half-maximal degradation concentration (DC50) lay in the range of 1 to 10 nM and the “Selectivity in MV411” value is “C (C (10-100 fold))”. For the same molecule, in assay [3], the “SMARCA2 MSD A549 degradation 24 h: Average Dmax %” value was “A (A (>90% degradation))” and the DC50 was 10 to 50 nM.
As for `C#Cc1ccc(CNC(=O)[C@@H]2C[C@@H](O)CN2C(=O)[C@@H](NC(=O)N2CC3(CC(N4CCC(c5cnc(N6CCc7[nH]c8nnc(-c9ccccc9O)cc8c7[C@@H]6CO)nc5)CC4)C3)C2)C(C)(C)C)cc1` [I-147], the Dmax in assay [1] is 70 to 90%; in assay [2], > 90%; in assay [3], > 90%. The DC50 lay within 10 to 100 nM in assay [1], 1 to 10 nM in assay [2] and 50 to 100 nM in assay [3]. For the same molecule, the “Selectivity in MV411” value in assay [2] was “D (D (<10 fold))”.
On to `Cc1ncsc1-c1ccc(CNC(=O)[C@@H]2C[C@@H](O)CN2C(=O)C(c2cc(N3CC4(CC(N5CCC(c6cnc(N7CCc8[nH]c9nnc(-c%10ccccc%10O)cc9c8[C@H]7C)nc6)CC5)C4)C3)no2)C(C)C)cc1` (single isomer, unassigned) [I-10], for which, in assay [1], the Dmax was > 90% and the DC50 is 1 to 10 nM. Moreover, in assay [2], the greatest degradation seen (Dmax) was > 90%, the DC50 is < 1 nM and the “Selectivity in MV411” value was “D (D (<10 fold))”. In addition, in assay [3], the Dmax was > 90% and the DC50 lay within 10 to 50 nM.
On to `C#Cc1ccc(CNC(=O)[C@@H]2C[C@@H](O)CN2C(=O)[C@@H](NC(=O)N2CC3(CC(CCN4CCC(c5cnc(N6CCc7[nH]c8nnc(-c9ccccc9O)cc8c7[C@H]6C)nc5)CC4)C3)C2)C(C)(C)C)cc1` [I-416], for which, in assay [1], the Dmax is > 90% and the DC50 was 10 to 100 nM. Moreover, in assay [2], the Dmax was > 90%, the DC50 fell in the range of 1 to 10 nM and the “Selectivity in MV411” value is “C (C (10-100 fold))”. For the same molecule, in assay [3], the Dmax is > 90% and the half-maximal degradation concentration (DC50) was 10 to 50 nM.
Take `C#Cc1ccc(CNC(=O)[C@@H]2C[C@@H](O)CN2C(=O)[C@@H](NC(=O)C2CCN(C[C@H]3CC[C@H](N4CCc5[nH]c6nnc(-c7ccccc7O)cc6c5[C@H]4C)CC3)CC2)C(C)(C)C)cc1` (single isomer, unassigned) [I-202]: in assay [1], the Dmax lay within 50 to 70% and the DC50 was > 100 nM. For the same molecule, in assay [2], the Dmax was 70 to 90%, the DC50 is 1 to 10 nM and the “Selectivity in MV411” value is “C (C (10-100 fold))”. Also, in assay [3], the Dmax was > 90% and the DC50 was > 100 nM.
Take `C#Cc1ccc(CNC(=O)[C@@H]2C[C@@H](O)CN2C(=O)[C@@H](NC(=O)N2CCO[C@@H](CN3CCC(N4CCC(N5CCN6c7cc(-c8ccccc8O)nnc7NC[C@H]6C5)CC4)CC3)C2)C(C)(C)C)cc1` [I-218]: in assay [1], the Dmax was < 50% and the DC50 is > 100 nM. For the same molecule, in assay [2], the Dmax is < 50%, the DC50 was > 100 nM and the “Selectivity in MV411” value is given as “C (C (10-100 fold))”. In addition, in assay [3], the Dmax lay within 50 to 70% and the half-maximal degradation concentration (DC50) is > 100 nM.
As for `Cc1ncsc1-c1ccc(CNC(=O)[C@@H]2C[C@@H](O)CN2C(=O)[C@@H](NC(=O)N2CC3(CCC(N4CCC(c5cnc(N6CCc7[nH]c8nnc(-c9ccccc9O)cc8c7[C@@H]6C)nc5)CC4)CC3)C2)C(C)(C)C)cc1` (single isomer, unassigned) [I-63], in assay [1], the Dmax lay in the range of 50 to 70% and the DC50 was > 100 nM. Moreover, in assay [2], the Dmax lay within 70 to 90%, the half-maximal degradation concentration (DC50) is 10 to 100 nM and the “Selectivity in MV411” value is “C (C (10-100 fold))”. For the same molecule, in assay [3], the Dmax was > 90% and the DC50 lay in the range of 10 to 50 nM.
Consider `Cc1ncsc1-c1ccc(CNC(=O)[C@@H]2C[C@@H](O)CN2C(=O)[C@@H](NC(=O)C2(F)CC2)C(C)(C)C)c(O[C@H]2CC[C@H](N3CCC(c4cnc(N5CCc6[nH]c7nnc(-c8ccccc8O)cc7c6[C@@H]5C)nc4)CC3)CC2)c1` (single isomer, unassigned) [I-33], for which, in assay [1], the Dmax was < 50% and the DC50 was > 100 nM. Also, in assay [2], the Dmax lay in the range of 50 to 70%, the DC50 lay in the range of 10 to 100 nM and the “Selectivity in MV411” value is recorded as “C (C (10-100 fold))”. For the same molecule, in assay [3], the Dmax was in the range of 50 to 70% and the DC50 was > 100 nM.
Regarding `C#Cc1ccc([C@H](C)NC(=O)[C@@H]2C[C@@H](O)CN2C(=O)[C@@H](c2cc(OCCN3CCC(N4CCC(N5CCC(CN6CCN7c8cc(-c9ccccc9O)nnc8NC[C@H]7C6)CC5)CC4)CC3)no2)C(C)C)cc1` (single isomer, unassigned) [I-334], in assay [1], the Dmax was < 50% and the DC50 is > 100 nM. For the same molecule, in assay [2], the Dmax is < 50%, the DC50 was > 100 nM and the “Selectivity in MV411” value is reported as “D (D (<10 fold))”. For the same molecule, in assay [3], the greatest degradation seen (Dmax) lay within 50 to 70% and the DC50 is > 100 nM.
